# Reference: US5932709A (University of Michigan, priority 1997, dated 1999)
# Experiments:
# [1] = target: T1, human placental topoisomerase I (Homo sapiens, UniProt P11387); assay: Inhibition of topoisomerase I catalytic activity (relaxation of supercoiled SV40 DNA); assay type: biochemical; conditions: for relaxation of supercoiled DNA: FIG. 18 / FIG. 19, in words; for topoisomerase I inhibitory activity: comparison in words, vs camptothecin; for topoisomerase I inhibition: highest concentration tested (100 μg/mL), in words
# T1 construct: purchased TopoGen; host or cells: human placenta
# T1 sequence (P11387 1-765): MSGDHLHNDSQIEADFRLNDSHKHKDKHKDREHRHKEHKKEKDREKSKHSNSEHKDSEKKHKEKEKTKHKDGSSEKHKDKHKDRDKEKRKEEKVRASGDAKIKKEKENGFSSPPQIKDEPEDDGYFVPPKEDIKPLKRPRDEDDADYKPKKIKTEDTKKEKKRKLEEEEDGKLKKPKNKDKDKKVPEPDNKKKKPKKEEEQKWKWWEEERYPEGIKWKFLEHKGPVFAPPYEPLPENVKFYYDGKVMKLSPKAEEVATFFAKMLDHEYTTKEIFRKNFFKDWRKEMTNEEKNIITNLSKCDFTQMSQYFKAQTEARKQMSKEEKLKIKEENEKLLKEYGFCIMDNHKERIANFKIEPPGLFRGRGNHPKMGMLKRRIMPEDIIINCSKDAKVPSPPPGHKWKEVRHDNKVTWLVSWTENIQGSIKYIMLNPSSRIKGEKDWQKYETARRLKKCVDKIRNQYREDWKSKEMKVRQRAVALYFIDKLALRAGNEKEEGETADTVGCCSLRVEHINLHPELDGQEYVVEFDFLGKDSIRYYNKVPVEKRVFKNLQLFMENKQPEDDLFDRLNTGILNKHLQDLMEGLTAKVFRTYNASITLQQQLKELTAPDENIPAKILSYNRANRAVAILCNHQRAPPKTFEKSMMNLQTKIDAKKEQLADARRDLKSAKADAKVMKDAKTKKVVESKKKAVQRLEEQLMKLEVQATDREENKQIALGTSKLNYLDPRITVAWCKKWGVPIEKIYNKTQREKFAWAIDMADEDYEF
# Experimental: The topoisomerase I catalytic activity was measured by converting the supercoiled SV40 DNA (Form I) to the relaxed form (Form Io). All reactions were performed in 20 μL reaction buffer (Tris-HCl, 10 mM, pH 7.5; EDTA, 1 mM; NaCl, 100 mM) with 0.25 μg SV40 DNA, 0.5 unit of human placental topoisomerase I (TopoGen) and graded concentrations of the analog tested. The reaction mixtures were incubated at 37° C. for 30 minutes. […] Ten μL of the reaction mixture was loaded onto a 1% agarose gel prepared in TAE buffer containing 2 μg/mL chloroquine; and the electrophoresis was performed at 82 volt for 4.5 hr in the TAE buffer containing 2 μg/mL chloroquine. […] The gels were then stained with 0.5 μg/mL ethidium bromide solution for 30 min or longer (if chloroquine is present during the electrophoresis step), and destained with 5 changes of deionized water. […] The DNA bands (image) on the negative were densitometrically scanned with a Molecular Dynamic Personal Densitometer. The percent inhibition of Toposiomerase I activity is calculated based on the following equation:
# % Inhibition=(FSC(E+D) -FSC(E))/(FSC(C)
# where FSC(E+D) represents fraction of supercoiled DNA in the presence of enzyme and drug; FSC(E) represents fraction of supercoiled DNA in the presence of enzyme alone; FSC(C) represents fraction of supercoiled DNA in the untreated SV40 DNA; the IC50 value was estimated using the same four-parameter logistic equation described in the in vitro growth inhibition studies.
# [2] = tested on: MX-1 human breast tumor xenograft; assay: in vivo
# Source text: For all the models, the vehicle used to deliver the analog of interest was isotonic saline.
# For the MX-1 human breast tumor xenograft models, the following procedure was used. Nude mice are implanted s.c. by trocar with fragments of MX-1 mammary carcinomas harvested from s.c. growing MX-1 tumors in nude mice hosts. When tumors are approximately 5 mm×5 mm in size (usually about ten days after inoculation), the animals are pair-matched into treatment and control groups. Each group contains ten tumored mice, each of which is ear-tagged and followed individually throughout the experiment. The administration of drugs or vehicle begins the day the animals are pair-matched (day 1). The doses, route of drug administration and schedule are selected as appropriate for the study in question. If the MTD dose of an agent is not known, it is determined in an initial dosing experiment in non-tumored mice. In a typical experiment, drugs are given at their MTD and 1/2 MTD doses i.p. on a daily×5 schedule.
# The experiment is usually terminated when control tumors reach a size of 2-3 g. Mice are weighed twice weekly, and tumor measurements are taken by calipers twice weekly, starting on day 1. These tumor measurements are converted to mg tumor weight by a well known formula, and from these calculated tumor weights the termination date can be determined. Upon termination, all mice are weighed, sacrificed, and their tumors excised. Tumors are weighed, and the mean tumor weight per group is calculated.
# Some drugs cause tumor shrinkage in the MX-1 model. With these agents, the final weight of a given tumor is subtracted from its own weight at the start of the treatment on day 1. This difference divided by the initial tumor weight is the % shrinkage. A mean % tumor shrinkage can be calculated from data from the mice in a group that experienced MX-1 regressions. If the tumor completely disappears in a mouse, this is considered a complete regression or complete tumor shrinkage. If desired, mice with partial or total tumor regressions can be kept alive past the termination date to see whether they live to become long term, tumor-free survivors.
# Note that in the following table the abbreviation SR refers to tumor shrinkage rate, while those entries followed by a superscripted `2` are tumor growth inhibition rates, not tumor shrinkage rates.
smiles,measurement,setting,value
"CC[C@@]1(O)C(=O)OCc2c1cc1n(c2=O)Cc2c-1nc1ccccc1c2CO[C@@H]1C=C[C@H](OC(C)=O)[C@@H](COC(C)=O)O1 [HAR4, 7-[4,6-di-O-acetyl-2,3-dideoxy-α-D-erythro-hex-2-enopyranosyl]oxymethylcamptothecin]",IC50,[1],42.3 µM
same,relaxation of supercoiled DNA,[1],inhibition of relaxation of supercoiled DNA
same,topoisomerase I inhibitory activity,[1],quite similar to those of camptothecin
same,complete disappearance of tumors (animals),[2]; 10 mg/kg,2
same,Tox Deaths,[2]; 10 mg/kg i.p. daily×5,0/10
same,ΔWeight (%),[2]; 10 mg/kg i.p. daily×5,-10.2%
same,SR(%) (Tumor Shrinkage Rate),"[2]; 10 mg/kg i.p. daily×5, 8/10 animals",77%
same,Shrinkage (animals),"[2]; 10 mg/kg i.p. daily×5, partial (77%)",8/10
same,SR(%) (Tumor Shrinkage Rate),"[2]; 10 mg/kg, 2/10 animals",100%
same,Shrinkage (animals),"[2]; 10 mg/kg, complete (100%) shrinkage",2/10
same,mice with tumor shrinkage,"[2]; 10 mg/kg, mean 77%",8
same,SR(%) (Tumor Shrinkage Rate),[2]; 20 mg/kg i.p. daily×5,99%
same,Shrinkage (animals),[2]; 20 mg/kg i.p. daily×5,1/10
same,Tox Deaths,[2]; 20 mg/kg i.p. daily×5,9/10
same,toxicity,"[2]; 20 mg/kg, in words",toxic
same,antitumor activity vs. MX-1,[2]; in words,"almost equivalent, outstanding activity"
"CC[C@@]1(O)C(=O)OCc2c1cc1n(c2=O)Cc2c-1nc1ccccc1c2CO[C@@H]1C=C[C@H](O[C@H]2O[C@H](COC(C)=O)[C@@H](OC(C)=O)[C@H](OC(C)=O)[C@H]2OC(C)=O)[C@@H](COC(C)=O)O1 [HAR5, 7-[6-O-acetyl-4-O-(2,3,4,6-tetra-O-acetyl-α-D-glucopyranosyl)-2,3-dideoxy-α-D-erythro-hex-2-enopyranosyl]oxymethylcamptothecin]",IC50,[1],> 114 µM
same,relaxation of supercoiled DNA,[1],inhibition of relaxation of supercoiled DNA
same,topoisomerase I inhibition,[1],moderately inhibited topoisomerase I activity
same,Tox Deaths,[2]; 100 mg/kg i.p. daily×5,0/10
same,animals with tumor growth inhibition (Shrinkage column),[2]; 100 mg/kg i.p. daily×5,10/10
same,ΔWeight (%),[2]; 100 mg/kg i.p. daily×5,+7.4%
same,"Tumor growth inhibition rate (footnote 2, SR column)","[2]; 100 mg/kg i.p. daily×5, 10/10 animals",48%
same,mice with growth inhibition,[2]; 200 mg/kg,7
same,mice with tumor shrinkage,[2]; 200 mg/kg,3
same,Shrinkage (animals),[2]; 200 mg/kg i.p. daily×5,3/10
same,Tox Deaths,[2]; 200 mg/kg i.p. daily×5,0/10
same,animals with tumor growth inhibition (Shrinkage column),[2]; 200 mg/kg i.p. daily×5,7/10
same,ΔWeight (%),[2]; 200 mg/kg i.p. daily×5,+5.3%
same,SR(%) (Tumor Shrinkage Rate),"[2]; 200 mg/kg i.p. daily×5, 3/10 animals",73%
same,"Tumor growth inhibition rate (footnote 2, SR column)","[2]; 200 mg/kg i.p. daily×5, 7/10 animals",82%
"CC[C@@]1(O)C(=O)OCc2c1cc1n(c2=O)Cc2c-1nc1ccccc1c2CO[C@@H]1C=C[C@H](O[C@H]2O[C@H](CO)[C@@H](O)[C@H](O)[C@H]2O)[C@@H](CO)O1 [HAR6, 7-[4-O-(α-D-glucopyranosyl)-2,3-dideoxy-α-D-erythro-hex-2-enopyranosyl]-oxymethylcamptothecin]",IC50,[1],> 150 µM
same,relaxation of supercoiled DNA,[1],inhibition of relaxation of supercoiled DNA
same,topoisomerase I inhibition,[1],moderately inhibited topoisomerase I activity
same,mice with growth inhibition,[2]; 50 mg/kg,2
same,mice with tumor shrinkage,[2]; 50 mg/kg,8
same,SR(%) (Tumor Shrinkage Rate),[2]; 50 mg/kg i.p. daily×5,81%
same,Shrinkage (animals),[2]; 50 mg/kg i.p. daily×5,8/10
same,Tox Deaths,[2]; 50 mg/kg i.p. daily×5,0/10
same,ΔWeight (%),[2]; 50 mg/kg i.p. daily×5,+2.5%
same,tumor growth inhibition,"[2]; 50 mg/kg, remaining 2 animals",82%
same,body weight loss,[2]; 100 mg/kg,approximately 19%
same,drug-related deaths,[2]; 100 mg/kg,the tenth animal died of toxicity and one
same,mice with tumor shrinkage,[2]; 100 mg/kg,9
same,SR(%) (Tumor Shrinkage Rate),[2]; 100 mg/kg i.p. daily×5,94%
same,Shrinkage (animals),[2]; 100 mg/kg i.p. daily×5,9/10
same,Tox Deaths,[2]; 100 mg/kg i.p. daily×5,1/10
same,ΔWeight (%),[2]; 100 mg/kg i.p. daily×5,-18.6%
same,antitumor activity vs. MX-1,[2]; in words,impressive antitumor activity vs. MX-1
"CC[C@@]1(O)C(=O)OCc2c1cc1n(c2=O)Cc2c-1nc1ccccc1c2CO[C@@H]1C=C[C@H](O)[C@@H](CO)O1 [HAR7, 7-[2,3-dideoxy-α-D-erythro-hex-2-enopyranosyl]-oxymethylcamptothecin]",IC50,[1],3.95 µM
same,relaxation of supercoiled DNA,[1],inhibition of relaxation of supercoiled DNA
same,topoisomerase I inhibitory activity,[1],quite similar to those of camptothecin
same,topoisomerase I inhibition relative to HAR4,[1]; more inhibitory than HAR4,10 times
same,mice with tumor shrinkage,[2]; 20 mg/kg,10
same,SR(%) (Tumor Shrinkage Rate),[2]; 20 mg/kg i.p. daily×5,98%
same,Shrinkage (animals),[2]; 20 mg/kg i.p. daily×5,10/10
same,Tox Deaths,[2]; 20 mg/kg i.p. daily×5,0/10
same,ΔWeight (%),[2]; 20 mg/kg i.p. daily×5,-0.05%
same,weight loss,"[2]; 20 mg/kg, in words",virtually no weight loss
same,SR(%) (Tumor Shrinkage Rate),[2]; 40 mg/kg i.p. daily×5,98%
same,Shrinkage (animals),[2]; 40 mg/kg i.p. daily×5,5/10
same,Tox Deaths,[2]; 40 mg/kg i.p. daily×5,4/10
same,ΔWeight (%),[2]; 40 mg/kg i.p. daily×5,-25.0%
same,toxicity,"[2]; 40 mg/kg, in words",produced lethality
same,antitumor activity vs. MX-1,[2]; in words,"almost equivalent, outstanding activity"
